In the supplement of paper PMC11451515:

Test system: NOMO1
Experiment: cell viability relative to DMSO control; higher = less cytotoxic
Conditions: 48 h
How it was run: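 Viability values are per-plate percentages of DMSO wells, with background from cell-free wells. Library compounds in DMSO were pin-dosed, in an 11-point threefold series from 47 μM to 0.79 nM, onto NOMO1 or SEM (500 cells/well) or P12-Ichikawa (1000 cells/well) leukemia cells in 1536-well plates (5 μl). Those cells had been adapted for at least four passages in each medium, and CellTiter-Glo One luminescence was read after 48 h at 37°C.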

[1] = HPLM + 10% dialyzed FBS, 0.000781 µM
[2] = HPLM + 10% dialyzed FBS, 0.00234 µM
[3] = HPLM + 10% dialyzed FBS, 0.00702 µM
[4] = HPLM + 10% dialyzed FBS, 0.0211 µM
[5] = HPLM + 10% dialyzed FBS, 0.0632 µM
[6] = HPLM + 10% dialyzed FBS, 0.19 µM
[7] = HPLM + 10% dialyzed FBS, 0.569 µM
[8] = HPLM + 10% dialyzed FBS, 1.71 µM
[9] = HPLM + 10% dialyzed FBS, 5.12 µM
[10] = HPLM + 10% dialyzed FBS, 15.4 µM
[11] = HPLM + 10% dialyzed FBS, 46.1 µM
[12] = RPMI 5 mM glucose + 10% FBS, 0.000781 µM
[13] = RPMI 5 mM glucose + 10% FBS, 0.00234 µM
[14] = RPMI 5 mM glucose + 10% FBS, 0.00702 µM
[15] = RPMI 5 mM glucose + 10% FBS, 0.0211 µM
[16] = RPMI 5 mM glucose + 10% FBS, 0.0632 µM
[17] = RPMI 5 mM glucose + 10% FBS, 0.19 µM
[18] = RPMI 5 mM glucose + 10% FBS, 0.569 µM
[19] = RPMI 5 mM glucose + 10% FBS, 1.71 µM
[20] = RPMI 5 mM glucose + 10% FBS, 5.12 µM
[21] = RPMI 5 mM glucose + 10% FBS, 15.4 µM
[22] = RPMI 5 mM glucose + 10% FBS, 46.1 µM
[23] = RPMI 5 mM glucose + 10% dialyzed FBS, 0.000781 µM
[24] = RPMI 5 mM glucose + 10% dialyzed FBS, 0.00234 µM
[25] = RPMI 5 mM glucose + 10% dialyzed FBS, 0.00702 µM
[26] = RPMI 5 mM glucose + 10% dialyzed FBS, 0.0211 µM
[27] = RPMI 5 mM glucose + 10% dialyzed FBS, 0.0632 µM
[28] = RPMI 5 mM glucose + 10% dialyzed FBS, 0.19 µM
[29] = RPMI 5 mM glucose + 10% dialyzed FBS, 0.569 µM
[30] = RPMI 5 mM glucose + 10% dialyzed FBS, 1.71 µM
[31] = RPMI 5 mM glucose + 10% dialyzed FBS, 5.12 µM
[32] = RPMI 5 mM glucose + 10% dialyzed FBS, 15.4 µM
[33] = RPMI 5 mM glucose + 10% dialyzed FBS, 46.1 µM

SMILES	cell viability [1] [%]	cell viability [2] [%]	cell viability [3] [%]	cell viability [4] [%]	cell viability [5] [%]	cell viability [6] [%]	cell viability [7] [%]	cell viability [8] [%]	cell viability [9] [%]	cell viability [10] [%]	cell viability [11] [%]	cell viability [12] [%]	cell viability [13] [%]	cell viability [14] [%]	cell viability [15] [%]	cell viability [16] [%]	cell viability [17] [%]	cell viability [18] [%]	cell viability [19] [%]	cell viability [20] [%]	cell viability [21] [%]	cell viability [22] [%]	cell viability [23] [%]	cell viability [24] [%]	cell viability [25] [%]	cell viability [26] [%]	cell viability [27] [%]	cell viability [28] [%]	cell viability [29] [%]	cell viability [30] [%]	cell viability [31] [%]	cell viability [32] [%]	cell viability [33] [%]
c1cc(-c2cnn3cc(-c4ccc(OCCN5CCCCC5)cc4)cnc23)ccn1	95.4	83.7	101	87.5	83.1	88.8	88.6	67.2	76.1	72.8	30.5	83.1	88.8	87.4	81.2	83.9	83.4	80.6	80.9	80.4	85.9	80.2	80.1	84.5	82.6	86.9	89.5	86.5	79.6	84	78.3	80.9	74
Cc1ccc2nc(NCCN)c3ncc(C)n3c2c1	116	99.9	121	104	108	107	105	101	113	88.7	8.31	88.1	92.2	91.9	94.1	98.1	98.4	100	87.8	90.2	84.9	11.3	87.9	95.8	104	104	99	96	95.6	96.7	100	81.6	7.57
CN1C(=O)/C(=C(NC2=CC=C(I)C=C2F)\C3=C1\N=C/N(C[C@@H](O)CO)C3=O)F	68.9	64.9	72.1	58.8	48.5	48.8	41.3	33.7	30.2	36.2	26.4	69.9	77.6	78.7	52.5	48	45.7	31.1	34.6	30.7	37.8	32.7	69.2	60	71.1	46	48.9	41.7	37.5	33.7	32.7	31.8	29.5
CN(C)CCCC1(c2ccc(F)cc2)OCc2cc(C#N)ccc21 (configuration not stated)	107	103	111	90.7	100	94	91.8	106	68.4	88.8	74	88.5	101	102	88.9	98.5	89.5	91.4	106	57.9	79.9	84.4	87.5	90	96.4	85	90.4	84.5	77.4	82.2	55.3	81	72.6
CO[C@H]1/C=C/O[C@@]2(C)Oc3c(C)c(O)c4c(c3C2=O)C2=NC3(CCN(CC(C)C)CC3)NC2=C(NC(=O)/C(C)=C/C=C/[C@H](C)[C@H](O)[C@@H](C)[C@@H](O)[C@@H](C)[C@H](OC(C)=O)[C@@H]1C)C4=O	117	111	146	135	132	127	138	137	127	113	117																						
Oc1ccc(OCc2ccccc2)cc1	108	131	116	106	132	108	102	107	105	79.7	48.6	119	113	127	120	114	127	105	104	101	110	87.8	110	116	105	112	108	106	114	113	116	89.9	60.7
CCC(C)CCCCC(=O)N[C@@H](CCN)C(=O)NC(C(=O)N[C@H](CCN)C(=O)N[C@@H]1CCNC(=O)C([C@@H](C)O)NC(=O)[C@@H](CCN)NC(=O)[C@@H](CCN)NC(=O)[C@@H](CC(C)C)NC(=O)[C@H](Cc2ccccc2)NC(=O)[C@H](CCN)NC1=O)[C@@H](C)O (some centres not stated)	118	110	113	112	123	133	137	119	124	127	125	102	125	109	108	112	120	118	130	130	126	115	113	121	134	130	131	131	137	134	124	135	123
Nc1ccc(C(=O)c2cc3c(ccc4ccccc43)[nH]2)cc1	120	121	123	129	113	112	117	110	89.5	40.5	26.6	118	112	110	117	121	116	101	109	99.2	56.4	18.9											
CC(C)(N)C(=O)N[C@H](COCc1ccccc1)C(=O)N1CCC2(CC1)CN([S+](C)(=O)[O-])c1ccccc12												117	122	132	124	123	123	122	115	113	109	110											
